According to patent publication US20040161820A1 (priority 2001, published 2004):

Legend:
Type in all cases: cell-based
L77 = experiment: MIC of G418 in liquid medium; conditions: wild-type Amazon strain L77
Experimental: (§1) Bacterial strains used as plasmid hosts included: Escherichia coli DH5: F'lendA1 hsdr17 (rk^−mk^−) supE44 thi-1 recA1 gyrA(Nal^r) relA1 (lacZYA-argF)U169 deoR (80dlac (lacZ)M15) (Sambrook et al., 1989). Yeast were tested in solid medium YPD and eight industrial strains, from laboratory and seven Amazonian strains were sensitive to 200 μg/ml and 500 μg/ml of G418. Afterwards, the minimum concentration of antibiotic that inhibits the growth (MIC) in liquid medium was determined (Table 1).

[1] = system: Montrachet de la Champagne; experiment: MIC of G418 in liquid medium; conditions: industrial strain Montrachet de la Champagne
Experimental: as §1

L101 = experiment: MIC of G418 in liquid medium; conditions: wild-type Amazon strain L101
Experimental: as §1

S288C = experiment: MIC of G418 in liquid medium; conditions: Saccharomyces cerevisiae, strain S288C
Experimental: as §1

Fermix = experiment: MIC of G418 in liquid medium; conditions: industrial strain Fermix
Experimental: as §1

L110 = experiment: MIC of G418 in liquid medium; conditions: wild-type Amazon strain L110
Experimental: as §1

BG 01 = experiment: MIC of G418 in liquid medium; conditions: industrial strain BG 01
Experimental: as §1

L103 = experiment: MIC of G418 in liquid medium; conditions: wild-type Amazon strain L103
Experimental: as §1

YPH252 = experiment: MIC of G418 in liquid medium; conditions: Saccharomyces cerevisiae, strain YPH252
Experimental: as §1

L151 = experiment: MIC of G418 in liquid medium; conditions: wild-type Amazon strain L151
Experimental: as §1

L69 = experiment: MIC of G418 in liquid medium; conditions: wild-type Amazon strain L69
Experimental: as §1

PE-2 = experiment: MIC of G418 in liquid medium; conditions: industrial strain PE-2
Experimental: as §1

L105 = experiment: MIC of G418 in liquid medium; conditions: industrial strain L105
Experimental: as §1

CR-01 = experiment: MIC of G418 in liquid medium; conditions: industrial strain CR-01
Experimental: as §1

L136 = experiment: MIC of G418 in liquid medium; conditions: wild-type Amazon strain L136
Experimental: as §1

L106 = experiment: MIC of G418 in liquid medium; conditions: industrial strain L106
Experimental: as §1

SA-01 = experiment: organism not typed

SMILES: CN[C@@H]1[C@@H](O)[C@@H](O[C@@H]2[C@@H](O)[C@H](O[C@H]3O[C@H]([C@@H](C)O)[C@@H](O)[C@H](O)[C@H]3N)[C@@H](N)C[C@H]2N)OC[C@]1(C)O [G418, geneticin]
- MIC (L77): 25 µg/mL
- MIC [1]: ≦50 μg/ml
- MIC (L101): 100 µg/mL
- MIC (S288C): 100 µg/mL
- MIC (Fermix): ≤ 50 µg/mL
- MIC (L110): 150 µg/mL
- MIC (BG 01): ≤ 50 µg/mL
- MIC (L103): 150 µg/mL
- MIC (YPH252): ≤ 50 µg/mL
- MIC (L151): 12.5 µg/mL
- MIC (L69): 100 µg/mL
- MIC (PE-2): ≤ 50 µg/mL
- MIC (L105): 25 µg/mL
- MIC (CR-01): ≤ 50 µg/mL
- MIC (L136): 25 µg/mL
- MIC (L106): 25 µg/mL
- MIC (SA-01): ≤ 50 µg/mL
